Source: patent US12673945B2, “3-((8-((1H-pyrazol-4-yl)amino)imidazo[1,2-a]pyridin-3-yl)ethinyl)-n-phenylbenzamide derivative, method for preparing same, and pharmaceutical composition containing same as active ingredient for prevention or treatment of cancer” (DAEGU-GYEONGBUK MEDICAL INNOVATION FOUNDATION, priority 2020, dated 2026)

Tests used:
Type in all cases: cell-based
[1] = test system: T315I-KOPM28 cells; assay: human CML cell proliferation inhibition; conditions: 72 hours, Cell Counting Kit-8
Description: (§1) In order to evaluate the therapeutic effect of the compound according to the present invention on chronic myelogenous leukemia (CML), the following experiment was performed, and the results are shown in Table 6 below. Inhibitory activity to Bcr-Abl kinase was evaluated through the experiment using TCCS and KOPM28 cells, and inhibitory activity to T315I-Bcr-Abl kinase was evaluated through the experiment using T315I-TCCS and T315I-KOPM28 cells.
(§2) Human chronic myelogenous leukemia (CML) cells used in the experiment were TCCS, T315I-TCCS, KOPM28 and T315I-KOPM28, and the four types of cells were provided by University of Yamanashi.
(§3) Four types of human CML cells were each seeded in 96-well plates at the density of 1×10^4/90 μL/well. A culture solution containing 9 concentrations (0.000256 to 100 μM) of each example compound serially diluted in 5 folds or DMSO (control) were added to the plate (10 μL/well) to a final concentration of 0 to 10 μM. The plate was incubated in a 37° C. CO2 incubator for 72 hours.
(§4) After incubation for 72 hours, the plate treated with the compound was treated with Cell Counting Kit-8 (Dojindo Molecular Technologies, Inc) solution at the concentration of 10 μL/well, and then mixed well. Then, the plate was incubated in a CO2 incubator at 37° C. for 2 hours, and absorbance at 450 nm was measured with a microplate reader. Data were expressed as percentage compared to vehicle treated cells and GI50 values were calculated using GraphPad Prism 8.0 (GraphPad software Inc., San Diego).

[2] = test system: T315I-TCCS cells; assay: human CML cell proliferation inhibition; conditions: 72 hours, Cell Counting Kit-8
Description: as §1, §2, §3, §4

[3] = test system: KOPM28 cells; assay: human CML cell proliferation inhibition; conditions: 72 hours, Cell Counting Kit-8
Description: as §1, §2, §3, §4

[4] = test system: TCCS cells; assay: human CML cell proliferation inhibition; conditions: 72 hours, Cell Counting Kit-8
Description: as §1, §2, §3, §4

[5] = test system: Parental (Ba/F3); assay: Ba/F3 cell proliferation inhibition; conditions: BaF3; 72 hours, Cell Counting Kit-8
Description: as §3, with “[…] lymphocyte cells, Parental (Ba/F3) and T315I-Bcr-Abl (Ba/F3)” for “Four types of human CML cells”, “were” for “were each”, “(0.015” for “(0.000256”, “3” for “5”, “[…])” for “μL/well)”
as §4, with “5.0” for “8.0”, “Diego) […].” for “Diego).”

[6] = test system: T315I-Bcr-Abl (Ba/F3); assay: Ba/F3 cell proliferation inhibition; conditions: BaF3; 72 hours, Cell Counting Kit-8
Description: as §3, with “[…] lymphocyte cells, Parental (Ba/F3) and T315I-Bcr-Abl (Ba/F3)” for “Four types of human CML cells”, “were” for “were each”, “(0.015” for “(0.000256”, “3” for “5”, “[…])” for “μL/well)”
as §4, with “5.0” for “8.0”, “Diego) […].” for “Diego).”

Row | Compound | GI50 [1] | GI50 [2] | GI50 [3] | GI50 [4] | GI50 [5] | GI50 [6]
1 | Cc1cc(F)c(C(=O)Nc2cc(-c3cccnc3)cc(C(C)(C)C#N)c2)cc1C#Cc1cnc2c(Nc3cnn(C)c3)cccn12 [Example 18, N-(3-(2-cyanopropan-2-yl)-5-(pyridin-3-yl)phenyl)-2-fluoro-4-methyl-5-((8-((1-methyl-1H-pyrazol-4-yl)amino)imidazo[1,2-a]pyridin-3-yl)ethynyl)benzamide] | 100 nM | 100 nM | < 10 nM | < 10 nM | > 5000 nM | 50 to 500 nM
2 | Cc1cc(F)c(C(=O)Nc2cc(-c3cnn(C)c3)cc(C(C)(C)C#N)c2)cc1C#Cc1cnc2c(Nc3cnn(C)c3)cccn12 [Example 19, N-(3-(2-cyanopropan-2-yl)-5-(1-methyl-1H-pyrazol-4-yl)phenyl)-2-fluoro-4-methyl-5-((8-((1-methyl-1H-pyrazol-4-yl)amino)imidazo[1,2-a]pyridin-3-yl)ethynyl)benzamide] | > 100 nM | 100 nM | < 10 nM | < 10 nM | > 5000 nM | 50 to 500 nM
3 | Cc1cc(F)c(C(=O)Nc2cc(N3CCN(C)CC3)cc(C(C)(C)C#N)c2)cc1C#Cc1cnc2c(Nc3cnn(C)c3)cccn12 [Example 20, N-(3-(2-cyanopropan-2-yl)-5-(4-methylpiperazin-1-yl)phenyl)-2-fluoro-4-methyl-5-((8-((1-methyl-1H-pyrazol-4-yl)amino)imidazo[1,2-a]pyridin-3-yl)ethynyl)benzamide] | > 100 nM | 100 nM | < 10 nM | < 10 nM | 500 to 5000 nM | 50 to 500 nM
4 | Cc1cc(F)c(C(=O)Nc2cc(N3CCCN(C)CC3)cc(C(C)(C)C#N)c2)cc1C#Cc1cnc2c(Nc3cnn(C)c3)cccn12 [Example 21, N-(3-(2-cyanopropan-2-yl)-5-(4-methyl-1,4-diazepan-1-yl)phenyl)-2-fluoro-4-methyl-5-((8-((1-methyl-1H-pyrazol-4-yl)amino)imidazo[1,2-a]pyridin-3-yl)ethynyl)benzamide] | > 100 nM | 100 nM | < 10 nM | < 10 nM | 500 to 5000 nM | 50 to 500 nM
5 | Cc1cc(F)c(C(=O)Nc2cc(N(C)CCN(C)C)cc(C(C)(C)C#N)c2)cc1C#Cc1cnc2c(Nc3cnn(C)c3)cccn12 [Example 22, N-(3-(2-cyanopropan-2-yl)-5-((2-(dimethylamino)ethyl)(methyl)amino)phenyl)-2-fluoro-4-methyl-5-((8-((1-methyl-1H-pyrazol-4-yl)amino)imidazo[1,2-a]pyridin-3-yl)ethynyl)benzamide] | 100 nM | 100 nM | < 10 nM | < 10 nM | 500 to 5000 nM | 50 to 500 nM
6 | Cc1cc(F)c(C(=O)Nc2cc(N(C)CCCN(C)C)cc(C(C)(C)C#N)c2)cc1C#Cc1cnc2c(Nc3cnn(C)c3)cccn12 [Example 23, N-(3-(2-cyanopropan-2-yl)-5-((3-(dimethylamino)propyl)(methyl)amino)phenyl)-2-fluoro-4-methyl-5-((8-((1-methyl-1H-pyrazol-4-yl)amino)imidazo[1,2-a]pyridin-3-yl)ethynyl)benzamide] | > 100 nM | > 100 nM | < 10 nM | < 10 nM | 500 to 5000 nM | 50 to 500 nM
7 | Cc1cc(F)c(C(=O)Nc2cc(N3CCN(C)C(=O)C3)cc(C(C)(C)C#N)c2)cc1C#Cc1cnc2c(Nc3cnn(C)c3)cccn12 [Example 24, N-(3-(2-cyanopropan-2-yl)-5-(4-methyl-3-oxopiperazin-1-yl)phenyl)-2-fluoro-4-methyl-5-((8-((1-methyl-1H-pyrazol-4-yl)amino)imidazo[1,2-a]pyridin-3-yl)ethynyl)benzamide] | 100 nM | 100 nM | < 10 nM | < 10 nM | 500 to 5000 nM | 50 to 500 nM
